Where “and” joins values, the source holds several entries; their conditions need not be identical. Equal entries are not always repeated. Entries after “also recorded” stand apart in the source; their conditions may differ. Square brackets hold non-standard residues; d marks the D form. Peptide text beside a SMILES is read from it.
What was measured:
[1] = tested on: patients with MCI or mild dementia due to AD; assay: Vital signs, physical examination, ECG and EEG; format: in vivo, human; conditions: 300 mg q.d. oral 28 d
Experimental: (§3) For safety assessment during baseline, at Day 14, 28, and 56, laboratory parameters and vital signs were measured, a physical exam was performed, and ECGs were recorded per protocol. A safety MRI was performed at screening, a second one within 3 days after day 28 and a third one at Day 56. During baseline and at day 28, EEG measurements were performed. In addition, nature, frequency, severity, and timing of AEs and SAEs were recorded at day 14, 28, and 56. Standardized AE reports were provided and analysed by the Data Safety and Monitoring Board (DSMB).

p-tau = assay: CSF p-tau181, Lumipulse immunoassay; format: in vivo, human; conditions: Day 28, n=9, 300 mg q.d. oral 28 d
Experimental: (§1) The effect of PRI-002 on cognition and function was tested by the CERAD+ battery and CDR-SB at baseline, Day 28, and Day 56, exploratory endpoints included the change of biomarkers (p-tau, t-tau, Aβ 1-40, Aβ 1-42 and Aβ oligomers) in CSF, blood plasma; change in CERAD+ test battery and CDR-SB scores.

[2] = tested on: patients with MCI or mild dementia due to AD; assay: Clinical Dementia Rating Sum of Boxes (CDR-SB); format: in vivo, human; conditions: 300 mg q.d. oral 28 d
Experimental: as §1

t-tau = assay: CSF t-tau, Lumipulse immunoassay; format: in vivo, human; conditions: Day 28, n=9, 300 mg q.d. oral 28 d
Experimental: as §1

[3] = tested on: patients with MCI or mild dementia due to AD; assay: Safety MRI (ARIA); format: in vivo, human; conditions: MRI at screening, after Day 28 and Day 56, 300 mg q.d. oral 28 d, n=9
Experimental: as §3

[4] = Pharmacokinetics of PRI-002 in plasma; conditions: 300 mg q.d. oral; for AUC(0-t): AUC 0-4 hours
Experimental: The effect on biomarker was assessed during baseline and after 28 days of medication. CSF collection and blood sampling were performed to determine PRI-002 concentration, which was conducted by Nuvisan (Neu-Ulm, Germany) and to exploratively estimate the effect of PRI-002 on the modulation of Aβ 1-40, Aβ 1-42, Aβ oligomers, total tau (t-tau), and phospho tau (p-tau). Aβ 1-40, Aβ 1-42, t-tau and p-tau181 were measured by immunoassay, using the Lumipulse platform (Fujirebio, Tokyo, Japan) and Aβ oligomers concentrations were determined using sFIDA technology[31]–[33] by attyloid GmbH (Düsseldorf, Germany). The effect of PRI-002 on cognitive and functional performance was measured by repetitively applying the CERAD+ battery and the Clinical Dementia Rating (CDR) at baseline, at Day 28 and additionally at the last visit (Day 56).
Secondary endpoints included the evaluation of pharmacokinetic characteristics of PRI-002 by determination of maximum plasma concentration (Cmax), time to reach maximum plasma concentration (Tmax), half-life (t1/2) calculated from PRI-002 plasma concentrations; and the determination of CSF concentrations of PRI-002.
4 Pharmacokinetic sampling X X
1 Heart rate and blood pressure: Day 1: at pre-dose and 2 hours±15 minutes; Day 14 and 28: at pre-
dose; 2 ECG Day 1: at pre-dose and 2 hours ± 15 minutes; Day 14 and 28: at pre-dose; 3 Safety
MRI was scheduled at screening and within three days after Day 28 and Day 56;4 Pharmacokinetic
sampling Day 1 and Day 28: at pre-dose, 30 minutes ± 15 minutes, 1 hour ± 15 minutes, 2
hours ± 15 minutes, and 4 hours ± 15 minutes.

[5] = tested on: patients with MCI or mild dementia due to AD; assay: Safety laboratory (hematology, clinical chemistry, hematoserology); format: in vivo, human; conditions: 300 mg q.d. oral 28 d
Experimental: All safety parameters and laboratory values (urinalysis, complete blood count (CBC), Quick, partial thromboplastin time (PTT), creatinine, […] (CK), […] (CRP), alanine aminotransaminase (ALT), aspartate aminotransferase (AST)) as well as ECG, EEG, MRI, and vital signs were analyzed in a descriptive manner according to their scales (frequencies, means). In order to compare a variable between both groups (placebo vs PRI-002) at one time point, a parameter free Wilcoxon rank sum test was used. As described in the statistical analysis plan, linear mixed models with random effect were used for the comparison of longitudinal effects between both groups (placebo vs PRI-002). ANOVA was also applied to assess longitudinal effects. Since the results are similar to the linear mixed models, results are presented using linear mixed models. A 95% confidence interval was used to check whether the parameters are within their normal ranges. The p value (p < 0.05) for the word list test was not corrected for multiplicity. All statistical data analysis was performed with the certified software Statistical Analysis System (SAS) by MicroDiscovery GmbH (Berlin, Germany).

Aβ oligomers = assay: CSF Aβ oligomers, sFIDA technology; format: in vivo, human
Experimental: as §1

[6] = PRI-002 concentration in CSF; format: in vivo, human
Experimental: (§2) In addition, also CSF levels of PRI-002 were determined. Due to non-specific binding of PRI-002 to vials used for sampling and storage the measured values, which are depicted in the Supplementary Table 7 are minimal values and the actual values will most probably be higher than reported here.
(11) Why were there no PK (drug concentration) assessments in CSF? Because BBB penetration in mice vs humans can diverge, matching CSF drug concentrations in human to those achieved in the animal pharmacology studies would be more compelling than matching […] drug concentrations. If there is a fundamental technical problem, it should be mentioned in the manuscript. […]
were unable to determine exact values. Due to non-specific binding of PRI-002 to vials used for sampling and storage of CSF, the measured values, which are depicted in the Table below are minimal values and will probably be higher than reported here.
Considering the three CSF samples in which the PRI-002 levels were above the LLOQ, approximately 15% of the mean predose plasma level of all patients at Day 28 (1.97±2.4 ng/ml) reached the CSF and […]
as §2, with “We will include the Table S5 in the supplement and the following sentence in the results part page 11, line 327-331: ”In” for “In”, “non -specific” for “non-specific”, “the” for “the Supplementary”, “S7” for “7”
Considering the three CSF samples in which the PRI -002 levels were above the LLOQ, approximately […]
Table S7 PRI-002 Level in CSF of […]

[7] = plasma, Day 1 (n=9), Max, MCI/mild AD patients
[8] = plasma, Day 1 (n=9), Mean ± SD, MCI/mild AD patients
[9] = plasma, Day 1 (n=9), Min, MCI/mild AD patients
[10] = plasma, Day 28 (n=8), Max, MCI/mild AD patients
[11] = EoT (Day 28), geometric mean ± SD
[12] = FU EoS (Day 56), geometric mean ± SD

## CC(C)C[C@@H](NC(=O)[C@H](NC(=O)[C@H]1CCCN1)[C@H](C)O)C(=O)N[C@H](Cc1c[nH]cn1)C(=O)N[C@@H](C(=O)N[C@H](Cc1c[nH]cn1)C(=O)N[C@H](CC(N)=O)C(=O)N[C@H](CCCNC(=N)N)C(=O)N[C@H](CCCNC(=N)N)C(=O)N[C@H](CCCNC(=N)N)C(=O)N[C@H](CCCNC(=N)N)C(=O)N[C@H](CCCNC(=N)N)C(N)=O)[C@H](C)O [PRI-002] (H-[dP][dT][dL][dH][dT][dH][dN][dR][dR][dR][dR][dR]-NH2; N-terminus and C-terminus assumed)
[1]
  changes on vital signs, general physical examination, ECG and EEG: no significant changes
p-tau
  p-tau, Mean: 112.4 pg/mL
[2]; Day 28, n=8
  CDR-SB, Mean: 1.75
[2]; Day 56, n=9
  CDR-SB, Mean: 2.39
t-tau
  t-tau, Mean: 698.7 pg/mL
[3]
  MRI: ARIA, edematous changes: no edematous changes; also recorded: no ARIA
[4]; Day 1, 0 h, n=9, MCI/mild AD patients
  PRI-002 plasma level, Mean: 0 ng/mL
[4]; Day 1, one line per patient
  AUC 0-4 hours, individual patients: 8.54 ng·h/mL
  C max (PRI-002 plasma level Day 1), individual patients: 3.43 ng/mL and 1 ng/mL and 2.02 ng/mL and 3.03 ng/mL and 2.84 ng/mL and 10.2 ng/mL and 6.52 ng/mL and 10.4 ng/mL and 0.66 ng/mL and 0.70 ng/mL and 1.00 ng/mL
  T max, individual patients: 0.50 h (3×) and 2.00 h and 4.00 h (3×) and 1.00 h (2×)
[4]; Day 28 (n=8), Max, MCI/mild AD patients
  Css trough: 7.45
[4]; Day 28, one line per patient
  C max, individual patients: 1.76 ng/mL and 18.10 ng/mL and 9.37 ng/mL and 31.40 ng/mL and 2.42 ng/mL and 32.90 ng/mL and 2.24 ng/mL and 2.98 ng/mL
  T max, individual patients: 0.50 h (6×) and 4.00 h and 2.00 h
[4]; day 1, 2 h, one line per patient
  PRI-002 plasma level, individual patients: 0.878
[4]; day 1, Pre-dose, one line per patient
  PRI-002 plasma level, individual patients: 0 ng/mL
[4]; human, plasma, po, 300 mg, plasma, Day 1 (n=9), Mean ± SD, MCI/mild AD patients
  AUC(0-t): 9.98 ± 7.46 ng·h/mL
[4]; human, plasma, po, 300 mg, plasma, Day 28 (n=8), Mean ± SD, MCI/mild AD patients
  AUC(0-t): 26.8 ± 23.8 ng·h/mL
[4]; human, plasma, po, 300 mg, plasma, Day 28 (n=8), Median, MCI/mild AD patients
  AUC(0-t): 20.4 ng·h/mL
[4]; human, plasma, po, 300 mg, Cmax, plasma, Day 1 (n=9), Mean ± SD, MCI/mild AD patients
  Cmax: 4.46 ± 3.71 ng/mL
[4]; human, plasma, po, 300 mg, Cmax, plasma, Day 1 (n=9), Median, MCI/mild AD patients
  Cmax: 3.03 ng/mL
[4]; human, plasma, po, 300 mg, Cmax, plasma, Day 28 (n=8), Mean ± SD, MCI/mild AD patients
  Cmax: 12.6 ± 13.2 ng/mL
[4]; human, plasma, po, 300 mg, Cmax, plasma, Day 28 (n=8), Median, MCI/mild AD patients
  Cmax: 6.2 ng/mL
[4]; human, plasma, po, 300 mg, PRI-002 plasma level, Mean, Day 1, 0.5 h, n=9, MCI/mild AD patients
  level at 0.5 h: 3.1 ng/mL
[4]; human, plasma, po, 300 mg, PRI-002 plasma level, Mean, Day 1, 1 h, n=9, MCI/mild AD patients
  level at 1 h: 3.5 ng/mL
[4]; human, plasma, po, 300 mg, PRI-002 plasma level, Mean, Day 1, 2 h, n=9, MCI/mild AD patients
  level at 2 h: 2.6 ng/mL
[4]; human, plasma, po, 300 mg, PRI-002 plasma level, Mean, Day 1, 4 h, n=9, MCI/mild AD patients
  level at 4 h: 1.9 ng/mL
[4]; human, plasma, po, 300 mg, PRI-002 plasma level, Mean, Day 28, 0 h, n=8, MCI/mild AD patients
  level at 0 h: 2 ng/mL
[4]; human, plasma, po, 300 mg, PRI-002 plasma level, Mean, Day 28, 0.5 h, n=8, MCI/mild AD patients
  level at 0.5 h: 12.5 ng/mL
[4]; human, plasma, po, 300 mg, PRI-002 plasma level, Mean, Day 28, 1 h, n=8, MCI/mild AD patients
  level at 1 h: 8.4 ng/mL
[4]; human, plasma, po, 300 mg, PRI-002 plasma level, Mean, Day 28, 2 h, n=8, MCI/mild AD patients
  level at 2 h: 6.1 ng/mL
[4]; human, plasma, po, 300 mg, PRI-002 plasma level, Mean, Day 28, 4 h, n=8, MCI/mild AD patients
  level at 4 h: 4.6 ng/mL
[4]; human, plasma, po, 300 mg, Tmax, plasma, Day 1 (n=9), Mean ± SD, MCI/mild AD patients
  Tmax: 1.94 ± 1.61 h
[4]; human, plasma, po, 300 mg, Tmax, plasma, Day 1 (n=9), Median, MCI/mild AD patients
  Tmax: 1 h
[4]; human, plasma, po, 300 mg, Tmax, plasma, Day 28 (n=8), Mean ± SD, MCI/mild AD patients
  Tmax: 1.1 ± 1.3 h
[4]; n=8, Mean ± SD, MCI/mild AD patients
  AUC 0-4 (Day28/Day1), mean systemic drug increase: 2.5 ± 1.3 fold
[4]; [7]
  AUC 0-4 hours: 22.0 ng·h/mL
  Cmax: 10.4 ng/mL
  Tmax: 4.0 h
[4]; [8]
  AUC 0-4 hours: 10 ± 7.5 ng·h/mL
  Tmax: about 2 h
[4]; [9]
  AUC 0-4 hours: 2.0 ng·h/mL
  Cmax: 0.7 ng/mL
[4]; [10]
  AUC 0-4 hours: 70.9 ng·h/mL
  Tmax: 4.0 h
[4]; plasma, Day 28 (n=8), Mean ± SD, MCI/mild AD patients
  Tmax: ~1 h
[4]; plasma, Day 28 (n=8), Min, MCI/mild AD patients
  AUC 0-4 hours: 5.9 ng·h/mL
[5]; Baseline (Day 1), geometric mean ± SD
  Hematocrit: 0.38±0.03 l/l
[5]; Day 14, geometric mean ± SD
  Erythrocyte: 4.14 ± 0.42 pL⁻¹
  Leucocyte: 5.95 ± 1.71 nL⁻¹
  PTT: 31.60 ± 3.95 s
  Quick value (prothrombin time): 96.99±21.30%
[5]; [11]
  Erythrocyte: 4.06 ± 0.44 pL⁻¹
  Leucocyte: 5.86 ± 1.81 nL⁻¹
  PTT: 29.71 ± 1.94 s
  Quick value (prothrombin time): 101.13±9.55%
[5]; [12]
  Erythrocyte: 4.10 ± 0.50 pL⁻¹
  Hematocrit: 0.40±0.03 l/l
  Leucocyte: 5.66 ± 1.41 nL⁻¹
  PTT: 30.96 ± 3.11 s
  Quick value (prothrombin time): 98.71±21.08%
[5]; Screening (Day 0), geometric mean ± SD
  Hematocrit: 0.39±0.03 l/l
[5]; screening to midterm visit to end of treatment
  changes in laboratory parameters (clinical chemistry, blood count, hematoserology): no clinically relevant changes
Aβ oligomers; CSF, Day 28, n=9, 300 mg q.d. oral 28 d
  Aβ42 oligomers, Mean: 4.747 fM
Aβ oligomers; CSF, change from Day 1 to Day 28, one line per patient (n = 9), 300 mg q.d. oral 28 d
  slope Abeta oligomers, individual patients: 1.237 and 0.635 and 0.4087 and 0.1526 and 0.3147 and -0.0095 and -0.4177 and -0.1322 and 0.7258
Aβ oligomers; Day 28 versus baseline and versus placebo, 300 mg q.d. oral 28 d
  changes in p-tau, t-tau, Aβ 1-40, Aβ 1-42 and Aβ oligomers in CSF: no significant changes
Aβ oligomers; Spearman, two-tailed, n = 9
  relationship between changes in Aβ oligomer concentrations and PRI-002 plasma levels at Day 1: significant inverse relationship
[6]; Day 28, LLOQ 0.200, minimal values due to non-specific binding to vials, one line per patient, 300 mg q.d. oral
  PRI-002 Level in CSF of individual patients: < 0.200 ng PRI-002/ml (6×) and 0.203 ng PRI-002/ml and 0.377 ng PRI-002/ml and 0.304 ng PRI-002/ml
[6]; three CSF samples above LLOQ versus predose plasma of all patients at Day 28
  share of the mean predose plasma level that reached the CSF: approximately 15%
[6]; three CSF samples above LLOQ versus predose plasma of patients 2, 3 and 4 at Day 28
  share of the mean predose plasma level that reached the CSF: approximately 8%
